Test [1] concerns the target T1, D(3) dopamine receptor (Homo sapiens, UniProt P35462). It is filed as cell-based, CHO.
Description: Inhibition constant against [3H]-spiperone binding to human Dopamine receptor D3 expressed in CHO cells
Test [2] deals with D(2) dopamine receptor (Rattus norvegicus) (UniProt P61169). Put plainly: Intrinsic activity to sitmulate rat Dopamine receptor D2L mediated [3H]thymidine incorporation into growing cells using mitogenesis assay. In general terms: Dividing cells build labelled thymidine or BrdU into new DNA.
Test [3] deals with D(1A) dopamine receptor (Bos taurus, UniProt Q95136). Put plainly: Inhibition constant against [3H]SCH-23390 binding to Dopamine receptor D1 in bovine striatal membranes. Type of test: cell membranes, Striatum, Membrane.
Test [4] addresses D(2) dopamine receptor (Rattus norvegicus) (UniProt P61169). Put plainly: Intrinsic activity to stimulate rat Dopamine receptor D2S mediated [3H]-thymidine incorporation into growing cells using mitogenesis assay.
The target in test [5] is T2, D(2) dopamine receptor (Homo sapiens, UniProt P14416). Type of test: cell-based, CHO.
Test [6] deals with T3, D(2) dopamine receptor (Rattus norvegicus, UniProt P61169). Put plainly: Effective concentration to stimulate rat Dopamine receptor D2L mediated [3H]thymidine incorporation into growing cells using mitogenesis assay.
For test [7], the target named is T1, D(3) dopamine receptor.
Test [8] concerns the target T4, D(4) dopamine receptor (Homo sapiens, UniProt P21917).
T4 sequence (P21917 whole entry): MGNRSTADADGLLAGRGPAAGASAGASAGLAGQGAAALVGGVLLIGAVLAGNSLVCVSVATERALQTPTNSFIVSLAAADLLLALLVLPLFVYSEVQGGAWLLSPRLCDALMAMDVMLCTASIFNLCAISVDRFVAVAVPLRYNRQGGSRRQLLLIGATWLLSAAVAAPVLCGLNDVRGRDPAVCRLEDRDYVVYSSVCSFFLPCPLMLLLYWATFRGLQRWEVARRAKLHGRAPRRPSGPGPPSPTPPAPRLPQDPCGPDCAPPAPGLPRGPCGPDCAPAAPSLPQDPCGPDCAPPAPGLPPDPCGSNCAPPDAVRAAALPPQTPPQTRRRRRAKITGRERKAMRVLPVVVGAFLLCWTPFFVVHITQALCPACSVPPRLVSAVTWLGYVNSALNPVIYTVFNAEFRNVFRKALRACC
It is filed as cell-based, CHO.
Description: High inhibition constant against [3H]spiperone binding to human Dopamine receptor D4.4 expressed in CHO cells

Test [9] concerns the target T1, D(3) dopamine receptor. This is another data set of the same source.
Description: Effective concentration to stimulate human Dopamine receptor D3 mediated [3H]-thymidine incorporation into growing cells using mitogenesis assay
Test [10] has as its target T4, D(4) dopamine receptor. Type of test: cell-based, CHO. This is another data set of the same source.
Test [11] concerns the target T4, D(4) dopamine receptor.
Description: Effective concentration to stimulate human Dopamine receptor D4.2 mediated [3H]thymidine incorporation into growing cells using mitogenesis assay
Test [12] concerns the target T2, D(2) dopamine receptor. It is filed as cell-based, CHO. The source holds these as a separate data set.
Description: High inhibition constant against [3H]spiperone binding to human Dopamine receptor D2L expressed in CHO cells
Test [13] concerns the target T2, D(2) dopamine receptor. It is filed as cell-based, CHO. This is another data set of the same source.
Test [14] deals with T3, D(2) dopamine receptor. Put plainly: Effective concentration to stimulate rat Dopamine receptor D2S mediated [3H]thymidine incorporation into growing cells using mitogenesis assay.
Test [15] deals with T2, D(2) dopamine receptor. It is filed as cell-based, CHO. This is another data set of the same source.
Test [16] deals with T1, D(3) dopamine receptor. The source holds these as a separate data set.

T3 sequence (P61169 whole entry): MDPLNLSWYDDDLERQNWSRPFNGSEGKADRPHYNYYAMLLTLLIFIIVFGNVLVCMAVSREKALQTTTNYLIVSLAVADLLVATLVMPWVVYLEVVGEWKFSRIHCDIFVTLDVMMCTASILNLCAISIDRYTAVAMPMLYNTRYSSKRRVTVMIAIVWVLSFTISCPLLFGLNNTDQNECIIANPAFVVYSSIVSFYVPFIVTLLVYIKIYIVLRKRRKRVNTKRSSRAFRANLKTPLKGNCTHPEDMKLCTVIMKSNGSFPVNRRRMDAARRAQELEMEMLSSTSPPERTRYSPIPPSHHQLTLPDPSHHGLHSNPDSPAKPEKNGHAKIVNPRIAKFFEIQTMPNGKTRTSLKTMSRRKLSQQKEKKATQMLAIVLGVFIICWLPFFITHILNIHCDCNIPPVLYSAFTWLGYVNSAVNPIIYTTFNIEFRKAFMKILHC
Sequence of D(2) dopamine receptor (Rattus norvegicus) (P61169 whole entry): as above
T2 sequence (P14416 whole entry): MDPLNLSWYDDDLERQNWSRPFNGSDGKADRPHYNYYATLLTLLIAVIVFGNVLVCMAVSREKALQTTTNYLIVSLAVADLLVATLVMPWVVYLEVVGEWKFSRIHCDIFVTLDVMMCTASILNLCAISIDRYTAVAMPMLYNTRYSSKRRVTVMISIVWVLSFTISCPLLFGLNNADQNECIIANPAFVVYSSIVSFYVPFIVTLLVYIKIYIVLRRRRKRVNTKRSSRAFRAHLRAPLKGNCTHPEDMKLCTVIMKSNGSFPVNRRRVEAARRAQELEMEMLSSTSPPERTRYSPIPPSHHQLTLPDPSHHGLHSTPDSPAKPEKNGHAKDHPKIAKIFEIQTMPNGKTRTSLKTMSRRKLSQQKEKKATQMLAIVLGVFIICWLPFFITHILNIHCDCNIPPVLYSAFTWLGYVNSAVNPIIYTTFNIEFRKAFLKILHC
Sequence of D(1A) dopamine receptor (Q95136 whole entry): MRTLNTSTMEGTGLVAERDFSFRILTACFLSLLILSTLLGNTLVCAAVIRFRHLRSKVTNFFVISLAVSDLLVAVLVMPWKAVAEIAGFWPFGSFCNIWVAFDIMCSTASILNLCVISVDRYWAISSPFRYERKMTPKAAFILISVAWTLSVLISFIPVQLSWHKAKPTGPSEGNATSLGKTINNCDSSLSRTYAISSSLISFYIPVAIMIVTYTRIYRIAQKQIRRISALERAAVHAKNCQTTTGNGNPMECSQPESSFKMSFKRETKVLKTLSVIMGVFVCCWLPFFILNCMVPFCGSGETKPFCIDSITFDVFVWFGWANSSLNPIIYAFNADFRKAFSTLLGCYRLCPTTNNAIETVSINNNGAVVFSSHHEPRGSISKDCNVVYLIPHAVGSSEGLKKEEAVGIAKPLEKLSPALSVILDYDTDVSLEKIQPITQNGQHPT
T1 sequence (P35462 whole entry): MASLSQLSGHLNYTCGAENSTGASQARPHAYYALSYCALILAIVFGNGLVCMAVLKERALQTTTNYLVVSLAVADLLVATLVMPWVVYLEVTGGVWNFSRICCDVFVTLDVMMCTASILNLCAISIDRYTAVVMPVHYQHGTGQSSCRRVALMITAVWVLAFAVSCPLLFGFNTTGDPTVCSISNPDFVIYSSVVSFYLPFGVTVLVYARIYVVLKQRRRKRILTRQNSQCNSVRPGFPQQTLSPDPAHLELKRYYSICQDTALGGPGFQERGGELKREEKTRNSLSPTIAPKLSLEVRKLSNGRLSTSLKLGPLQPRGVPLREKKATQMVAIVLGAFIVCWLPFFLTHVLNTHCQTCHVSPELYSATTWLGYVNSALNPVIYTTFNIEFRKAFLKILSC

The Ki is the equilibrium dissociation constant of an inhibitor or competing ligand from its target. The compound `CCCN(CCC)[C@H]1CCn2c(ccc2-c2ccccc2)C1` gave a Ki in test [1] of 7940 nM. That is a single-digit micromolar value.

`CCCN(CCC)[C@H]1CCn2ccc(C)c2C1`: the inhibition constant (Ki) in [1] is 676 nM.

As to `CCCN[C@H]1CCc2nc(N)sc2C1` [PRAMIPEXOLE], the Intrinsic activity in test [2] was 85%; in [4], 103%. In test [3], this compound displayed a Ki above 20 µM.

With `CCCN(CCC)[C@H]1CCn2c(/C=N\O)ccc2C1`, the inhibitory constant (Ki) in test [1] was 49 nM. This counts as double-digit nanomolar.

In test [1], `CCCN(CCC)[C@@H]1CCn2c(/C=N\O)ccc2C1` gave a Ki of 4790 nM.

`CCCN(CCC)[C@H]1CCn2c(ccc2C(=O)C(Cl)(Cl)Cl)C1` had an inhibition constant (Ki) in test [1] of 263 nM. Compared with the last compound, the Ki is about 18-fold lower.

On to `CCCN(CCC)[C@H]1CCc2c(ccn2C=O)C1`, for which the Ki in [1] is 38.9 nM.

Compound `CCCN(CCC)[C@@H]1CCn2c(/C=N/O)ccc2C1` had a Ki in test [1] of 2090 nM.

Regarding `CCCN(CCC)[C@@H]1CCn2c(ccc2CN(C)C)C1`, affinity in test [1] was put at a Ki of 12000 nM.

As to `CCCN(CCC)[C@@H]1CCn2c(C#N)ccc2C1`, the Ki in [1] was 2820 nM.

In the case of `CCCN(CCC)[C@H]1CCn2c(C)ccc2C1`, in [1], the Ki is 417 nM.

One may read the EC50 as the concentration needed to bring the measured effect to its halfway point. Lower therefore signals an effect from little substance. `CCCN(CCC)[C@H]1CCn2c(C=O)ccc2C1`: the Ki was 6.9 µM in test [5]; 5.25 nM in test [1]; above 20 µM in [3]; 5.3 nM in [7]; 32 nM in test [8]; 2.5 µM in test [10]. Moreover, the values for the inhibition constant (Ki) in test [12], in [13] and in test [15] were 52 nM, 3 µM and 41 nM, respectively. Moreover, the EC50 in test [6] is 11 nM; in [9] it was 1.1 nM; in test [11], 4.2 µM; in [14], 79 nM. Further, the Intrinsic activity in [2] is 98%; in test [4] it was 101%.

`CCCN(CCC)[C@H]1CCn2c(ccc2C(=O)OCC)C1` showed an inhibition constant (Ki) in test [1] of 4370 nM.

For the compound `Oc1ccc2c(c1O)-c1cccc3c1[C@@H](C2)NCC3`, the affinity in [1], expressed as Ki, was 58.9 nM. This Ki lies about 74-fold lower than the previous one.

The compound `CCCN(CCC)[C@@H]1CCn2c(ccc2C(=O)OCC)C1` had a Ki in test [1] of 324 nM.

`CCCN(CCC)[C@@H]1CCn2ccc(C)c2C1` showed an inhibition constant Ki in test [1] of 1450 nM.

`CCCN(CCC)[C@@H]1CCn2c(ccc2C(C)=O)C1`: the Ki in test [1] was 2820 nM.

In the case of `CCCN(CCC)[C@@H]1CCn2c(ccc2C(=O)C(F)(F)F)C1`, affinity in [1] was put at a Ki of 2510 nM.

The compound `CCCN(CCC)[C@H]1CCn2cc(C)cc2C1` gave a Ki in test [1] of 794 nM.

The compound `CCCN(CCC)[C@@H]1CCn2c(ccc2C(=O)C(Cl)(Cl)Cl)C1` had a Ki in test [1] of 87.1 nM.

Take `CCCN(CCC)[C@@H]1CCn2ccc(C=O)c2C1`: in test [1], the inhibitory constant (Ki) is 501 nM.

`CCCN(CCC)[C@@H]1CCn2ccc(CO)c2C1` gave a Ki in test [1] of 324 nM.

In test [1], `CCCN(CCC)[C@@H]1CCn2c(C)ccc2C1` had a Ki of 617 nM.

Consider `CCCN(CCC)[C@H]1CCn2c(C#N)ccc2C1`, for which the Ki in test [5] was 6.5 µM; in test [1] it was 7.24 nM; in test [3] it was above 20 µM; in [7], 7.2 nM; in test [8] it was 40 nM; in test [10], 9.7 µM. Moreover, the Ki was 140 nM in test [16], 190 nM in test [12], 5.1 µM in test [13] and 130 nM in test [15]. The concentration for a half-maximal effect (EC50) in [6] is 42 nM; in [9], 2.4 nM; in test [14] it was 130 nM. Moreover, the figures for the Intrinsic activity in [2] and in test [4] were 99% and 95%, respectively.

As to `CCCN(CCC)[C@H]1CCn2c(C=C(C#N)C#N)ccc2C1`, the affinity in [1], expressed as Ki, was 60.3 nM.

Turning to `CCCN(CCC)[C@@H]1CCn2cc(C)cc2C1`, in test [1], the Ki was 912 nM. This Ki is about 15-fold higher than that of the compound before.

Compound `CCCN(CCC)[C@H]1CCn2c(/C=N/O)ccc2C1` gave a Ki in [1] of 30.9 nM. Against the preceding compound, the Ki is about 30-fold lower.

With `CCCN(CCC)[C@@H]1CCn2c(C=C(C#N)C#N)ccc2C1`, the affinity in test [1], expressed as Ki, was 6030 nM.

`CCCN(CCC)[C@H]1CCn2c(ccc2C(=O)c2ccccc2)C1`: the Ki in [1] was 1910 nM.

In test [1], `CCCN(CCC)[C@@H]1CCn2cccc2C1` had an inhibition constant Ki of 1660 nM. The Ki values of the last two compounds are within 1.5-fold of each other.

For `CCCN(CCC)[C@@H]1CCn2c(ccc2-c2ccccc2)C1`, the inhibition constant (Ki) in test [1] is 2400 nM.

With `CCCN(CCC)[C@@H]1CCn2c(CO)ccc2C1`, in test [1], the Ki is 724 nM.

In the case of `CCCN(CCC)[C@H]1CCn2cccc2C1`, the affinity in [1], expressed as Ki, was 575 nM.

`CCCN(CCC)[C@H]1CCn2c(ccc2C(C)=O)C1` had an inhibition constant Ki in test [1] of 45.7 nM.

With `CCCN(CCC)[C@H]1CCn2c(ccc2CN(C)C)C1`, the Ki in [1] was 3630 nM. Compared with the last compound, the Ki is about 79-fold higher.

`CCCN(CCC)[C@H]1CCn2c(ccc2C(=O)C(F)(F)F)C1` had a Ki in test [1] of 22.9 nM.

Consider `CCCN(CCC)[C@@H]1CCn2c(ccc2C(=O)c2ccccc2)C1`, for which the Ki in test [1] is 1550 nM.

In [1], `CCCN(CCC)[C@@H]1CCc2c(ccn2C=O)C1` showed a Ki of 43.7 nM. This Ki is about 35-fold lower than that of the compound before.

For the origin of these results see ChEMBL document CHEMBL1143571 (J Med Chem, 2005).
